In patent US7307102B2, “Method of preventing or treating estrogen-dependent diseases and disorders” (Duke University, priority 1997, dated 2007):

Tests used:
[1] = molecular target: T1, wild-type human estrogen receptor (ERwt) (Homo sapiens, UniProt P03372); assay: C3 promoter-luciferase cotransfection assay in HepG2 cells, ERwt; format: cell-based
T1 construct: expressed in transfected cells; host or cells: HepG2
T1 sequence (P03372 1-595): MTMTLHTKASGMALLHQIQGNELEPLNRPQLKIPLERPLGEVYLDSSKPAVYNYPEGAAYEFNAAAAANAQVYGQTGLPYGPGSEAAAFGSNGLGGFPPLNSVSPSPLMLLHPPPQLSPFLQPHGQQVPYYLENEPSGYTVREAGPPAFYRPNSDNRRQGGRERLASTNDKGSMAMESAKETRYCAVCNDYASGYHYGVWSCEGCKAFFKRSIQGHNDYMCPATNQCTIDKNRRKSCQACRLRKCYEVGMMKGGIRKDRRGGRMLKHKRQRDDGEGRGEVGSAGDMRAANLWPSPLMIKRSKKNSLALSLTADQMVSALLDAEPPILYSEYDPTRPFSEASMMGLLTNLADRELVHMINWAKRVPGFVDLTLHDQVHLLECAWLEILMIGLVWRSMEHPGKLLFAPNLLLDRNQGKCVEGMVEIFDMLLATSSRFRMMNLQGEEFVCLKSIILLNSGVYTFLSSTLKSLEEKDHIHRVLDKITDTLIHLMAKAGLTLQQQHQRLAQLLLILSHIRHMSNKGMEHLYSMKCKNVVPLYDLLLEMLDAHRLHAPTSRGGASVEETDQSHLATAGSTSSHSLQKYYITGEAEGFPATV
From the text: FIGS. 1A and 1B. […] The human C3 promoter (−1807 to +58) fused to the firefly luciferase reporter gene was transfected along with an expression plasmid containing (FIG. 1A) the wild-type human estrogen receptor (ERwt), or (FIG. 1B) a mutated ER in which the AF-2 function had been disrupted (ER-TAFl) into HepG2 cells and tested for transcriptional activation in the presence of increasing concentrations of ER-modulator as indicated. Transfections were normalized for efficiency and cell number by cotransfecting an expression plasmid containing β-galactosidase. The normalized response was obtained by dividing light units by the activity of β-galactosidase as measured in an enzymatic assay. Triplicate transfections were performed. The data shown are representative of multiple experiments performed under similar conditions.
FIGS. 2A-2C. […] FIG. 2A. […] FIG. 2B. […] FIG. 2C. […] Transfections were normalized for efficiency and cell number by cotransfecting an expression plasmid containing β-galactosidase. The normalized response was obtained by dividing light units by the activity of β-galactosidase as measured in an enzymatic assay. Representative assays are shown in which triplicate transfections were performed. Error bars represent the standard error of the mean (SEM).
HepG2 cells were maintained in Modified Eagles Medium (MEM) (Life Technologies, Grand Island, N.Y.) plus 10% Fetal Calf Serum (FCS) (Life Technologies). Cells were plated in 24 well plates (coated with gelatin) 24 hours prior to transfection. DNA was introduced into the cells using Lipofectin (Life Technologies). Briefly, triplicate transfections were performed using 3 μg of total DNA. For standard transfections, 500 ng of pCMV-β-Gal (normalization vector), 1500 ng reporter (variable) and 1000 ng receptor (pRST7-hER (Dana et al, Mol. Endocrinol. 8:1193-1207 (1994)) were used for each triplicate. Incubation of the cells with Lipofectin proceeded for 3 hrs, at which time media was removed, cells were washed with PBS and then induced with the appropriate hormone diluted in phenol red-free media containing 10% charcoal stripped CS (Cyclone Inc.). Incubation with hormone continued for 48 hrs, after which cells were lysed and assayed for luciferase and β-galactosidase activity as previously described (Norris et al, JBC 270:22777-22782 (1995)).
A series of in vitro screens have been developed that permit the classification of ER-modulators into four mechanistically distinct groups (Tzukerman et al, Mol. Endocrinol. 8:21-30 (1994)). […] Using these assays, it has been possible to derive “fingerprints” of known ER-modulators (McDonnell et al, Mol. Endocrinol. 9:659-669 (1995)).
Subsequently, the transfected cells were assayed for luceriferase and β-galactosidase activity. Each data point in this experiment represents the average of triplicate determinations of the transcriptional activity under given experimental conditions.

[2] = Total serum cholesterol in ovariectomized rats; format: in vivo, rat; details: OVX rats, 28 days, lowest concentration tested, FIG. 4
Protocol: Animal preparation. […] At sacrifice, animals were euthanized with C02, body weights were recorded and the uteri were removed and weighed. Uterus, vagina and mammary tissue were fixed in 10% neutral buffered formalin. Samples for histologic processing were taken from the mid-point of each uterine horn. Tissue samples were embedded in paraffin, stained with haematoxylin and eosin and evaluated microscopically. Lumbar vertebrae and both left and right tibiae were excised. Total blood cholesterol was measured (Roche Biomedical Laboratories).

[3] = Uterotrophic assay in immature rats
Protocol: FIG. 5. […] The data shown represent the mean value (±SEM).
Twenty-one day old female Sprague-Dawley rats (30-35 gms) were obtained from Harlan or Taconic Laboratories. Animals were sorted randomly into treatment groups of five, and average weights were recorded for each treatment group. Weights were recorded on each treatment day. […] On day of dosing, drug was diluted in 0.5% methyl cellulose, viscosity of 2% at 25° C.:400 centipoises (Sigma, St. Louis, Mo.)). Oral dosing by gavage was based on a total volume of 10 ml/kg body weight. […] Subcutaneous dosing was based on a total of 2 ml/kg body weight. […] On day 4, animals were sacrificed by C02 asphyxiation, body weights were obtained and uteri were removed, blotted and weighed. Data were expressed as uterine weight/body weight.
In this assay, uterine wet weight was used as a measure of ER-agonist activity in this tissue (FIG. 5).

[4] = system: MCF-7 breast cancer tumors; assay: Antiestrogen treatment of MCF-7 breast cancer tumors in nude mice (Example 4); format: in vivo, mouse; details: two highest doses of GW5638 (0.6 mg, 1.0 mg) vs 1.0 mg tamoxifen, FIG. 9
Protocol: FIG. 9. Effect of anti-estrogen treatment on MCF-7 breast cancer tumors in nude mice.
This study was conducted using tumor cells derived from the MCF-7 breast cancer line. This line is estrogen and progesterone receptor positive, dependent upon hormone and sensitive to antihormones. The tumor cells were inoculated into the flank of ovariectomized, athymic BALB/c Urd nunu mice. The mice were supplemented with slow release estrogen pellets. Animals were given subcutaneous daily injections as indicated below:
Group 1: control (corn oil)
Using calipers, tumors were measured in 2 dimensions, where tumor area=½×w/2×π.

MCF-7/LCC2 = assay: LCC2 study, MCF-7/LCC2 tumors in nude mice; format: in vivo, mouse; details: after 8 weeks, 1.0 mg every three days, FIG. 11
Protocol: This experiment was conducted to determine the ability of GW5638 to retard the growth of this cell line in nude mice relative to control or tamoxifen treated tumors.
40 OVX mice were prepared to accept cells and grouped as follows:
Control animals received nothing and groups 3 and 4 received 0.1 ml injections in corn oil every three days. Tumors were measured Q3 days with calipers, and the area calculated as follows: Area=½×w/2×π.

reversal of the inverse agonist activity of ICI182,780 ([1]; C3 promoter, co-addition with ICI182,780, FIG. 2C): partially reversed
inhibition of the agonist activity manifested by tamoxifen or estradiol ([1]; ERwt, 10^−8M 17-β-estradiol or tamoxifen, FIG. 2A): inhibited
uterotrophic activity at 10 μm/kg/d ([3]; rat, in vivo, po): inactive
SMILES: CC/C(=C(\c1ccccc1)c1ccc(/C=C/C(=O)O)cc1)c1ccccc1 [GW5638]
agonist / inverse agonist activity on the C3 promoter ([1]; ERwt, compound alone, FIG. 1A/2A): do not demonstrate any agonist or antagonist activity
total serum cholesterol level [2]: as effective as estradiol in decreasing serum cholesterol levels
inhibition of the agonist activity of estradiol in the uterus ([3]; 21 day old immature rats, in the presence of estradiol): could completely inhibit the agonist activity of estradiol
effect on tumors compared with tamoxifen [4]: no significant difference
tumor growth (MCF-7/LCC2): equally inhibit growth of this tumor
